# Laboratory results: patent publication US20200108043A1, “COMPOUNDS AND COMPOSITIONS FOR EXTENDING LIFESPAN OF A SUBJECT” (YALE UNIVERSITY, priority 2017, published 2020)
# What was measured:
# Saccharomyces cerevisiae = experiment: High-Life (High throughput replicative Lifespan measurement) flow cytometry assay in MEP yeast; assay type: cell-based; details: 10 μM, 24 hours in culture, 3-4 replicate wells, repeat of screen hits
# Protocol: Cells were labeled with NHS-fluorescein as described above, then diluted to 20 cells/μL in media. 80 μL/well was aliquoted to 384-well plates, which were covered with a breathable membrane and placed on a shaker platform in a humidified incubator. After 3 hours, the plates were removed from the incubator and each well was treated with 20 μL pre-warmed, 30° C. 5 μM β-estradiol in media. In the case of ibuprofen or compound-treated wells, the compound was diluted in this volume at a 5× concentration to achieve a final concentration of 10 μM, or 100 μM for ibuprofen. The plates were then returned to the incubator. At indicated times, one plate was removed from the incubator and placed on an autosampler cooled to 8° C. attached to a Stratedigm flow cytometer. The cytometer was set to automatically add and mix 20 μL of aqueous solution containing 60 μg/mL CF405M-WGA (Biotium 29028) and propidium iodide (Sigma P4864) prior to acquiring 80 μL of sample for each well.
# In order to test the lifespan of model organisms on both a large-scale and with quick turn-around, a massively multiplexed method was developed to measure replicative lifespan in the short-lived model organisms Saccharomyces cerevisiae. The protocol uses green-fluorescent labeling to identify progenitor cells, red-fluorescent labeling to differentiate non-viable cells, and blue-fluorescent labeling of bud scars to determine replicative age (FIG. 1). Each parameter is measured using a flow cytometer.
# To achieve high throughput, the measurement system was automated, and the assay was performed in 384-well plates. The assay was performed using an autosampler-equipped flow cytometer, in a volume of 100 μL. Growth of even a single cell and its progeny in such a small volume will result in nutrient starvation before the natural replicative lifespan is exhausted; therefore to circumvent this issue, High-Life experiments were performed in the background of the Mother Enrichment Program (MEP) (Lindstrom and Gottschling, Genetics. 2009 October; 183(2):413-22). MEP strains express a CRE recombinase fused to an estrogen-binding domain for only a short time after birth. In the presence of β-estradiol, the recombinase translocates to the nucleus where it can excise two essential genes that have been modified to contain the exogenous LoxP sequence. Addition of β-estradiol to the media thus renders newborn daughters inviable without affecting existing mother cells, preventing exponential growth of the cell population and nutrient depletion (FIG. 2A).
# The High-Life method was then tested to determine if it was suitable to screening for compounds that extend replicative lifespan. […] The effect of these compounds on High-Life readings was assayed after 24 hours in culture at 10 μM concentration. As a positive control, ibuprofen was used.
# S. cerevisiae = assay type: cell-based
# Protocol: To obtain the single-cell level data for the age and generation-durations of replicatively aging mother cells, data reported in Liu, P., et al., Cell Rep. 634-644 (2015) was re-analyzed. The data was collected in the same media condition (CSM 2% glucose) as reported elsewhere herein. Cells were grown for ˜24 hours in CSM 2% glucose prior to loading to the microfluidic device. Once cells were loaded, media was swapped to provide CSM 2% glucose control media (untreated), media containing DMSO as a vehicle control (American Bio AB00435), media containing 10 μM terreic acid (Sigma SML0480), media containing 10 μM mycophenolic acid (Sigma M5255), or media containing another compound at the indicated concentration. An automated microscope was used to track […], and replicative lifespan was later determined by counting the number of daughters produced before death. In the case of compound validation, only newborn cells were included in the lifespan experiment. To compare the replicative lifespan of labeled and unlabeled cells, only cells that were present within the traps at the start of the experiment were included. For these experiments, cells were loaded to the microfluidic device at an increased rate of 100 μL/min to increase the number of trapped mother cells. Green fluorescent images were also taken at the start of the experiment to confirm that the cells were visibly labeled.
# Differences in lifespan characteristics were assessed through Log-Rank test using MATLAB with a cut-off value of P=0.05. The script for Log-Rank test was downloaded from MATLAB. Differences in proteasome activity were assessed using the unpaired, two-tailed, parametric t-test function of the GraphPad Prism software.
# The Longevity Placement Test (LPT) was designed as a mutually exclusive, collectively exhaustive test to determine the relationship of a longevity intervention to a known genetic regulator of lifespan. For a given intervention that extends lifespan, any of three possible relationships may exist relative to a known genetic regulator of lifespan. (1) The intervention may act to extend lifespan independently from the known regulator. (2) The […] may act downstream from the known regulator, converging on a single component of the known regulator's lifespan pathway. (3) The intervention may act upstream from or upon the known regulator, ultimately modulating lifespan through the genetic regulator.
# In Step 1 of the LPT, the longevity intervention is applied to a strain in which a genetic regulator of lifespan is deleted. In the event that lifespan extension from the longevity intervention is observed in this background, only possibilities (1) and (2) above remain valid (FIG. 7B). If no lifespan extension is observed, then possibilities (2) and (3) remain valid. Possibility (2) cannot be ruled out in this step, since non-saturating action by the genetic regulator could leave room for lifespan extension by the longevity intervention, while saturating action would preclude it.
# In Step 2 of the LPT, an epistatic agent, which prevents lifespan extension from the longevity agent, is applied to a strain in which some upstream member of the genetic regulator's lifespan pathway has been modified to extend lifespan. This step differentiates possibility (2) from the remaining possibility after Step 1. In the event that lifespan extension from the genetic regulator's pathway is suppressed by the epistatic agent, this determines that possibility (2) is correct. In the event that no epistasis is observed, the remaining possibility, (1) or (3), is correct (FIG. 7C).
smiles,measurement,setting,value
COc1c(C)c2c(c(O)c1C/C=C(\C)CCC(=O)O)C(=O)OC2 [mycophenolic acid],average High-Life readings (progenitor fraction viable vs CF405M intensity) relative to controls,Saccharomyces cerevisiae,at least slightly above controls
same,lifespan extension with treatment for only part of the lifespan,"S. cerevisiae; 10 μM MPA only first 24 hours or only after first 24 hours, compared to whole-lifespan treatment",reduced lifespan extension compared to whole-lifespan treatment
same,lifespan extension with pulse treatment,"S. cerevisiae; 10 μM MPA, 6-hour pulse between 24th and 30th hour",little to no lifespan extension
same,extension of mean RLS,"S. cerevisiae; 10 μM compound, wild-type haploid cells, Replicator device",20%
same,lifespan in ΔSIR2ΔFOB1 background (LPT step 1),"S. cerevisiae; absence of SIR2, ΔSIR2ΔFOB1 background",able to extend the lifespan
same,lifespan in ΔHXK2 strain (LPT step 1),S. cerevisiae; long-lived ΔHXK2 strain,further extended lifespan
same,lifespan in ΔTOR1 strain (LPT step 1),S. cerevisiae; long-lived ΔTOR1 strain,further extended lifespan
same,replicative lifespan (RLS) with and without supplemental guanine,"S. cerevisiae; wild-type haploid yeast BY4741, MPA without supplemental guanine vs control and guanine supplemented",extended longevity
same,RLS in ΔPRE9 strain,S. cerevisiae; ΔPRE9 strain,extends RLS
same,RLS in ΔUBR2 strain (LPT step 1),S. cerevisiae; ΔUBR2 strain,"moderately, but not significantly, extended RLS"
